Measured values taken from publication PMC11912475 (Journal of Medicinal Chemistry, 2025).

What was measured:
Muscarinic M5 = biological target: T1, Muscarinic M5 (Homo sapiens, UniProt P08912); assay: Radioligand displacement binding assay, [3H]N-methylscopolamine, M5
T1 construct: host or cells: CHO-K1
T1 sequence (P08912 1-532): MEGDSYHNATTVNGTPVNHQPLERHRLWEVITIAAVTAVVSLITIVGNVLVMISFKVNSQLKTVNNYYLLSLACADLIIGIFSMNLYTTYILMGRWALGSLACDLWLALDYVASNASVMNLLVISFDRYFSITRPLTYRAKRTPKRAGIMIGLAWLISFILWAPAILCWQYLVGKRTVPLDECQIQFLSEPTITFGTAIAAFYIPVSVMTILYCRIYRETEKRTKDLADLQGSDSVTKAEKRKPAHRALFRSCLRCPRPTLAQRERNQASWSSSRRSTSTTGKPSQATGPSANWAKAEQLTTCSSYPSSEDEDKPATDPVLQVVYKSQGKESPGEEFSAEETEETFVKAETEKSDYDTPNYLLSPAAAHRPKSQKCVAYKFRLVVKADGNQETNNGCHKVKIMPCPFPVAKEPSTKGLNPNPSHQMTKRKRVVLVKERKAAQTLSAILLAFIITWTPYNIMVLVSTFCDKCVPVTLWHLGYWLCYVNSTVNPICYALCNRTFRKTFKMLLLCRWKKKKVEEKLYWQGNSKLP

[1] = biological target: T2, GluN1-GluN2B NMDAR subtype (Homo sapiens, UniProt Q05586+Q13224); assay: FLIPR/Ca2+ assay, NMDAR GluN1-GluN2B subtype in CHO cells; type: cell-based; details: CHO cells, 10 μM L-glutamate and 10 μM glycine; n.d. = 50% of inhibition could not be reached at the highest concentration used
T2 construct: host or cells: NR1-2B-CHO cells, constitutive expression
Experimental: (§1) These compounds were assessed for their effects on specific heterodimeric NMDAR subtypes stably overexpressed in Chinese Hamster Ovary (CHO) cells. The subtypes tested included GluN1-GluN2A, GluN1-GluN2B, GluN1-GluN2C, and GluN1-GluN2D. CHO cells expressing each of the four NMDAR subtypes were incubated with 10 μM L-glutamate, a concentration known to elicit maximal Ca^2+ influx, serving as the stimulus. Intracellular Ca^2+ levels were subsequently measured to determine the extent of NMDAR activation.
(§2) Assay buffer composition was 145 mM NaCl, 5 mM KCl, 2 mM CaCl2, 1 g/Liter D-(+)-glucose, and 20 mM HEPES (pH 7.3 adjusted with NaOH). Cells were plated at a density of 15.000/well in 384 black/clear bottom plates. […] Cells were kept at 30 °C in 5% CO2 incubator for 24 h. Cells were preloaded for 1 h with 2 μM Fluo-4 Ca^2+-sensitive probe, simultaneously with 2.5 mM probenecid, an inhibitor of nonspecific anion transport, and 500 μM ketamine to avoid cytotoxicity. […] Intracellular Ca^2+ level was monitored by FLIPR (excitation wavelength at 470–495 nm, emission wavelength at 515–575 nm) for 10 s before and 5 min after the addition of test items. All test items, including L-glutamate and glycine, were added simultaneously. […] FLIPR data were normalized as 100%, in the presence of 10 μM L-glutamate and 10 μM glycine, while as 0%, in the presence of assay buffer. […] Then, data were normalized by Excel 2013 (Microsoft Office) software, using wells added with 10 μM L-glutamate plus 10 μM glycine (column 23) as high control, and wells added with assay buffer only (column 24) as low control. To assess plate quality, Z′ calculations were performed in Excel. Z′ was calculated according to following equation: Z′ = 1–3(σh + σl)/|μh – μL| where μ and σ are the means and the standard deviations of the means of high (h) and low (l) controls, respectively. Compound concentration–response curves were plotted by Prism 8 GraphPad software, in the different experimental conditions (see Supporting Information). Data were analyzed using least-squares regression fitting, to fit data to a standard four parameters logistic equation using GraphPad Prism10. This regression fitting allowed the calculation of pIC50 and the corresponding SEM.

[2] = biological target: GluN1-GluN2C NMDAR subtype (Homo sapiens, UniProt Q05586+Q14957); assay: FLIPR/Ca2+ assay, NMDAR GluN1-GluN2C subtype in CHO cells; type: cell-based; details: CHO cells, 10 μM L-glutamate and 10 μM glycine; n.d. = 50% of inhibition could not be reached at the highest concentration used
Experimental: as §1, §2

Serotonin 5-HT2A = biological target: T3, Serotonin 5-HT2A (Homo sapiens, UniProt P28223); assay: Radioligand displacement binding assay, [3H]ketanserin, 5-HT2A
T3 construct: host or cells: CHO-K1

[3] = biological target: GluN1-GluN2A NMDAR subtype (Homo sapiens, UniProt Q05586+Q12879); assay: FLIPR/Ca2+ assay, NMDAR GluN1-GluN2A subtype in CHO cells; type: cell-based; details: CHO cells, 10 μM L-glutamate and 10 μM glycine; n.d. = 50% of inhibition could not be reached at the highest concentration used
Experimental: as §1, §2

μ opioid receptor (MOP) = biological target: T4, μ opioid receptor (MOP) (Homo sapiens, UniProt P35372); assay: biochemical; type: binding; details: for inhibition at 0.3 µM / inhibition at 3 µM: read-out: % inhibition of binding, MOP
T4 construct: host or cells: CHO-K1

[4] = biological target: T5, Serotonin transporter SERT (Homo sapiens, UniProt P31645); assay: Radioligand displacement binding assay, [3H]paroxetine, SERT; details: for % inhibition of binding, SERT / inhibition at 10 µM: 10 μM
T5 construct: host or cells: HEK-293

Histamine H1 = biological target: T6, Histamine H1 (Homo sapiens, UniProt P35367); assay: Radioligand displacement binding assay, [3H]pyrilamine, H1
T6 construct: host or cells: CHO-K1

Serotonin 5-HT7 = biological target: T7, Serotonin 5-HT7 (Homo sapiens, UniProt P34969); assay: Radioligand displacement binding assay, [3H]LSD, 5-HT7
T7 construct: host or cells: CHO-K1

Serotonin 5-HT2C = biological target: T8, Serotonin 5-HT2C (Homo sapiens, UniProt P28335); assay: Radioligand displacement binding assay, [3H]mesulergine, 5-HT2C
T8 construct: host or cells: CHO-K1
T8 sequence (P28335 33-458): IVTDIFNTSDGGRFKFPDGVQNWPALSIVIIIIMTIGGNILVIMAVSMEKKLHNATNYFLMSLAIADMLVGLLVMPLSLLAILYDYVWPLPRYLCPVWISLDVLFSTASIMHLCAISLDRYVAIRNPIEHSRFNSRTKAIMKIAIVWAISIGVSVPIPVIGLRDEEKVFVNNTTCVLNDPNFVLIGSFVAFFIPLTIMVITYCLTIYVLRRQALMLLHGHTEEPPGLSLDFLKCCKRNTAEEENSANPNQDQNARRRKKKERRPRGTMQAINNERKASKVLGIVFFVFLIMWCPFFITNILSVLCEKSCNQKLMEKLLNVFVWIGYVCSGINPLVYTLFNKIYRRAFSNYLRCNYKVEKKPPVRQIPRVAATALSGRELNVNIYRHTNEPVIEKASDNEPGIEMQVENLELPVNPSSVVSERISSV

[5] = biological target: GluN1-GluN2D NMDAR subtype (Homo sapiens, UniProt O15399+Q05586); assay: FLIPR/Ca2+ assay, NMDAR GluN1-GluN2D subtype in CHO cells; type: cell-based; details: CHO cells, 10 μM L-glutamate and 10 μM glycine; n.d. = 50% of inhibition could not be reached at the highest concentration used
Experimental: as §1, §2

Serotonin 5-HT1A = biological target: T9, Serotonin 5-HT1A (Homo sapiens, UniProt P08908); assay: Radioligand displacement binding assay, [3H]8-OH-DPAT, 5-HT1A
T9 construct: host or cells: CHO-K1
T9 sequence (P08908 1-422): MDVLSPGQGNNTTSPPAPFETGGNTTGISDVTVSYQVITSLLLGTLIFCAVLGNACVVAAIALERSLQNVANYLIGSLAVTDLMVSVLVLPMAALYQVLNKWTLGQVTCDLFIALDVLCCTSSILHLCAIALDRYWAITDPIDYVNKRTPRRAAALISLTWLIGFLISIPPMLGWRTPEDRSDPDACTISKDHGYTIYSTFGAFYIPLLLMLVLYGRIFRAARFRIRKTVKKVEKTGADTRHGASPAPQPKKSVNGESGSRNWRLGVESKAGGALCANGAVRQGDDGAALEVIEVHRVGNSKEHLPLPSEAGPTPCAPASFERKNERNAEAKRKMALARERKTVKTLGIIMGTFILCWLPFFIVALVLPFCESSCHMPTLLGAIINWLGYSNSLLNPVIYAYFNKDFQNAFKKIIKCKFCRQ

[6] = biological target: T10, Norepinephrine transporter NET (Homo sapiens, UniProt P23975); assay: Radioligand displacement binding assay, [125I]RTI-55, NET
T10 construct: host or cells: MDCK

Sigma σ1 = biological target: T11, Sigma σ1 (Homo sapiens, UniProt Q99720); assay: Radioligand displacement binding assay, [3H]pentazocine, sigma σ1
T11 construct: Sigma σ1; Source: Human Jurkat cells; host or cells: Jurkat

Serotonin 5-HT5A = biological target: T12, Serotonin 5-HT5A (Homo sapiens, UniProt P47898); assay: Radioligand displacement binding assay, [3H]LSD, 5-HT5A
T12 construct: host or cells: CHO-K1

[7] = tested on: Glutamate, NMDA, Phencyclidine binding site; assay: Radioligand displacement binding assay, [3H]TCP, NMDA; parameters: species or system Wistar rat

GluN1-GluN2C NMDAR subtype, sequence (Q14957 20-1233, other chains not shown): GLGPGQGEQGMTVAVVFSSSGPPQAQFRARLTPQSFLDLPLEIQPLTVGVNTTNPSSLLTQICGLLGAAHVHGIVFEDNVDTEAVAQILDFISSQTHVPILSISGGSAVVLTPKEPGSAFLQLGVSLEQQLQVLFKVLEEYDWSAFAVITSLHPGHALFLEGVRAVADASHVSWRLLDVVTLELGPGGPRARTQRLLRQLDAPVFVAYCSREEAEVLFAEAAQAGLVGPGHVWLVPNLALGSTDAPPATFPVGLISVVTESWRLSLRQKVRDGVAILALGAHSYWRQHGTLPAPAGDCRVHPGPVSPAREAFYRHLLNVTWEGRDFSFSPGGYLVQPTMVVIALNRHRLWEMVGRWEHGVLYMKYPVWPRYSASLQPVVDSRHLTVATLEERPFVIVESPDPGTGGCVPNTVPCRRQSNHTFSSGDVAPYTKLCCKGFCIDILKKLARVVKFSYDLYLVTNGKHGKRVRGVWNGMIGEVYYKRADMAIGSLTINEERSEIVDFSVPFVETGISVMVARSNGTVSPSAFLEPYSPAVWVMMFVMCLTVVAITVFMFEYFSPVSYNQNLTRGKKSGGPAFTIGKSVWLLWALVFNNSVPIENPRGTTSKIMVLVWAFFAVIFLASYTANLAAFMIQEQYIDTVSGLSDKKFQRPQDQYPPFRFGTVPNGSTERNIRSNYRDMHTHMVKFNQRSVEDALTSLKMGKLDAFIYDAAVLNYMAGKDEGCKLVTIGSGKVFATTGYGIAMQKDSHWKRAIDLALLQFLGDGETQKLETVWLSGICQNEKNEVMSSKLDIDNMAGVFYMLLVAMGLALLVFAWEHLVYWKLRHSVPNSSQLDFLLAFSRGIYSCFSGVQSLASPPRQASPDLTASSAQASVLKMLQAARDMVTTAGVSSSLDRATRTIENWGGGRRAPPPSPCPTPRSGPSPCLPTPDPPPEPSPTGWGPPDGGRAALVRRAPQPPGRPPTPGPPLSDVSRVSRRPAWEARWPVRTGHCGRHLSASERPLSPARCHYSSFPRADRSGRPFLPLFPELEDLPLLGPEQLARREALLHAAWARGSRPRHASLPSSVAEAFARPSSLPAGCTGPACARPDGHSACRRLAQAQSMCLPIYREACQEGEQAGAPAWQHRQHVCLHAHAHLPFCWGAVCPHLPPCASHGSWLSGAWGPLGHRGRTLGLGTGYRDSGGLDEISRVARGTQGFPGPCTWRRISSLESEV
GluN1-GluN2A NMDAR subtype, sequence (Q12879 23-1464, other chains not shown): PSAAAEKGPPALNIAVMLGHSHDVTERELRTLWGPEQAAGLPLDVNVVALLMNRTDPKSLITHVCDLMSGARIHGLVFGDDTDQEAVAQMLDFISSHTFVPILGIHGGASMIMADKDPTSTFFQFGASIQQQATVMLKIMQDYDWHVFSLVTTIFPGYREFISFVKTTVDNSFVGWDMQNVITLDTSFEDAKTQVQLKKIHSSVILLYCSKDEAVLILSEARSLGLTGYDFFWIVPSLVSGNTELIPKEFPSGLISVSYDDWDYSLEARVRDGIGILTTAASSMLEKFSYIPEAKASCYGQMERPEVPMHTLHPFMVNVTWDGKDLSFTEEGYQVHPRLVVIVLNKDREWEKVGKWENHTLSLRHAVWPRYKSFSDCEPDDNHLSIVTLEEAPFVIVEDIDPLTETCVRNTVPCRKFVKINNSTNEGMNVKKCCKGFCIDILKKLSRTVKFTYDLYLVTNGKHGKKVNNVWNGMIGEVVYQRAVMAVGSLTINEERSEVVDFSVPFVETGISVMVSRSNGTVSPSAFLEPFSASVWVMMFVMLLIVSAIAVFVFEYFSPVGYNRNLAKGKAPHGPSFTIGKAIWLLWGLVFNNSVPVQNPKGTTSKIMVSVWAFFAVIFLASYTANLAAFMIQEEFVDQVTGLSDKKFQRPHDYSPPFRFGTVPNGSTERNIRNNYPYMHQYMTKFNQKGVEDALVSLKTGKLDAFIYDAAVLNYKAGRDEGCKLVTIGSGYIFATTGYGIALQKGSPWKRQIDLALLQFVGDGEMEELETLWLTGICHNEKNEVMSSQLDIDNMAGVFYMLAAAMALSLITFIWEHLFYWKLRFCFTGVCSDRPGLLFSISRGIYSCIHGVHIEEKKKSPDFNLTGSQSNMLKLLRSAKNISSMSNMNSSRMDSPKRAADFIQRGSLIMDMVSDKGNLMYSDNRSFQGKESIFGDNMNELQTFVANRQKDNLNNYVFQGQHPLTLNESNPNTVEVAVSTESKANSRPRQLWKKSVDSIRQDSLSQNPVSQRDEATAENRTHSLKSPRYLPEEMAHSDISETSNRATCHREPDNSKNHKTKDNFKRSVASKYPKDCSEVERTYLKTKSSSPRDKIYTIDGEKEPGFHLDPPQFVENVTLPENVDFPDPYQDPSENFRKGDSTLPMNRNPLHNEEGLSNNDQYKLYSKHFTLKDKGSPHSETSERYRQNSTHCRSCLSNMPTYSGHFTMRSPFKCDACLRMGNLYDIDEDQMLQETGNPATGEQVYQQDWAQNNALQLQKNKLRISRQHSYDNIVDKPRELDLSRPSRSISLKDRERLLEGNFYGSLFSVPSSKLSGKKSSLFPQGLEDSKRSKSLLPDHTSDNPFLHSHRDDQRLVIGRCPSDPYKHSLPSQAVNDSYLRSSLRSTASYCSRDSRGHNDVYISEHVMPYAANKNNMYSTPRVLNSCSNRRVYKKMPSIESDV
T2 sequence (Q13224 27-1484, other chains not shown): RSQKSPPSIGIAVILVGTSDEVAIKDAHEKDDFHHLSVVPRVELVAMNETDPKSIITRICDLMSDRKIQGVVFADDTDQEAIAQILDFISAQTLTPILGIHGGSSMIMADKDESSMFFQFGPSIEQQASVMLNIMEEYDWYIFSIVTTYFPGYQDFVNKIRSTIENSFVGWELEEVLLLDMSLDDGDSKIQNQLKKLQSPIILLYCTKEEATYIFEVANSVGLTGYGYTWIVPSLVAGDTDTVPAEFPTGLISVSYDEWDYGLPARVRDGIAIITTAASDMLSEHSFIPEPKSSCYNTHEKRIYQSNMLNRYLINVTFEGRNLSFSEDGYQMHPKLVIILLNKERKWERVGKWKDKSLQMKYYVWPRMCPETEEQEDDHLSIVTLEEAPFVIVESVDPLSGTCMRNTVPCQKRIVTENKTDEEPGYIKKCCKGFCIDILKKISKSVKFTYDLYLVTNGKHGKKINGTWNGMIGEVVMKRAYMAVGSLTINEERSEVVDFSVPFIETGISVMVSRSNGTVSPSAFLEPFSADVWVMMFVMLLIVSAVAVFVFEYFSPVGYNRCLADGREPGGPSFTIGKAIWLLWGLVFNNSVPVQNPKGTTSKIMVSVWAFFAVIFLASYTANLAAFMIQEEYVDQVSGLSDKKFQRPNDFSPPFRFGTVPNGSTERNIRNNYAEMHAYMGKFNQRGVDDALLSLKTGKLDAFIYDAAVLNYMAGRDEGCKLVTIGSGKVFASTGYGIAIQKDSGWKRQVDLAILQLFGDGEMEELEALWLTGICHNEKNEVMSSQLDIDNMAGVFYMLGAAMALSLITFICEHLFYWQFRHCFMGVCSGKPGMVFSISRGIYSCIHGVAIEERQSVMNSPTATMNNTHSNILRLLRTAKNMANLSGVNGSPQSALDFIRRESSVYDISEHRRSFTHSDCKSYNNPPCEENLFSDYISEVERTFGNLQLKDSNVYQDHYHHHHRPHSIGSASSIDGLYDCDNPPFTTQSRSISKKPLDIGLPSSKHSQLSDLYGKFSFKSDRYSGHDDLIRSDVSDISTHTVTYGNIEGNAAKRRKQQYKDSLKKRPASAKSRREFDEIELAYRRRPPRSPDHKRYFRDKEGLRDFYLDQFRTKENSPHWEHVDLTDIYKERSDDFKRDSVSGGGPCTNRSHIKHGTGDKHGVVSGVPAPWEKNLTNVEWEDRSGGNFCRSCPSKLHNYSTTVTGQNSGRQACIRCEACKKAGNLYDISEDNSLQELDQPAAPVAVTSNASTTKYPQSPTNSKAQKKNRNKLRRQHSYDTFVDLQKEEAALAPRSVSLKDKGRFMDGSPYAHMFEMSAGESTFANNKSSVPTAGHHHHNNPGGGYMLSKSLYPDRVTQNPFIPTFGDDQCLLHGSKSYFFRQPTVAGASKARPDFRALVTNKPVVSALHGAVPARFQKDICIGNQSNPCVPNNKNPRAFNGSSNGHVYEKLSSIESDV
T10 sequence (P23975 whole entry): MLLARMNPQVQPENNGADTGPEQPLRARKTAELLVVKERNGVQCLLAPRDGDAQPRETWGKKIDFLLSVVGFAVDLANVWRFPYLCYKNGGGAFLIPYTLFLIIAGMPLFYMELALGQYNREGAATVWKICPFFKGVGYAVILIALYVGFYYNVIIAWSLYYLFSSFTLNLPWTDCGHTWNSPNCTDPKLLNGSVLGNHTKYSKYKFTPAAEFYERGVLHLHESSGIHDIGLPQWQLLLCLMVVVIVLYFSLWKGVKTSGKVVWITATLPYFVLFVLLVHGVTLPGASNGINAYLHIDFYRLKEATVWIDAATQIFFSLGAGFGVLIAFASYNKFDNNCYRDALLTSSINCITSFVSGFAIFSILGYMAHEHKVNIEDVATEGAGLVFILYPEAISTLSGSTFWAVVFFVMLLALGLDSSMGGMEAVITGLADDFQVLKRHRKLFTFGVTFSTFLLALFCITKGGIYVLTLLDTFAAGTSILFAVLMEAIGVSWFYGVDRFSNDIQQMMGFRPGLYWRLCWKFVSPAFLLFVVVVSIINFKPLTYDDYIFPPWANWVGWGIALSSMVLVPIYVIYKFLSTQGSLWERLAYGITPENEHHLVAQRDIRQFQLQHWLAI
T4 sequence (P35372 whole entry): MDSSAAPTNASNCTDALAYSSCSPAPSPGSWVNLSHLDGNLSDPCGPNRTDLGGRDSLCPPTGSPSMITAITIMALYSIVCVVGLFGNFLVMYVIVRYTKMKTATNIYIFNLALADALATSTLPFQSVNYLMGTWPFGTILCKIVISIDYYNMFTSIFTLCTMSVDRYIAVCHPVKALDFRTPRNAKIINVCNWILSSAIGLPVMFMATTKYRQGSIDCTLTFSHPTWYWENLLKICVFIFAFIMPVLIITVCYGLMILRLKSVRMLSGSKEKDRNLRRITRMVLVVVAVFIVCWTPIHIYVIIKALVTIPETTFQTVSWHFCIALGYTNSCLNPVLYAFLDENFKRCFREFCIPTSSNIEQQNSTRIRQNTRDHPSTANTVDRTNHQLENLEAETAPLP

Structure (SMILES) | inhibition at 1 µM (Muscarinic M5) | inhibition at 10 µM (Muscarinic M5) | pIC50 (mean ± SEM) GluN1-GluN2B [1] | pIC50 (mean ± SEM) GluN1-GluN2C [2] | inhibition at 0.3 µM (Serotonin 5-HT2A) | inhibition at 3 µM (Serotonin 5-HT2A) | pIC50 (mean ± SEM) GluN1-GluN2A [3] | inhibition at 0.3 µM (μ opioid receptor (MOP)) | inhibition at 3 µM (μ opioid receptor (MOP)) | inhibition at 1 µM [4] | inhibition at 10 µM [4] | inhibition at 10 µM (Histamine H1) | inhibition at 30 µM (Histamine H1) | inhibition at 1 µM (Serotonin 5-HT7) | inhibition at 10 µM (Serotonin 5-HT7) | inhibition at 0.3 µM (Serotonin 5-HT2C) | inhibition at 3 µM (Serotonin 5-HT2C) | pIC50 (mean ± SEM) GluN1-GluN2D [5] | inhibition at 0.3 µM (Serotonin 5-HT1A) | inhibition at 3 µM (Serotonin 5-HT1A) | also measured
CC[C@@H](O)C(C[C@H](C)N)(c1ccccc1)c1ccccc1 [(3R,6S)-DNML, (3R,6S)-6-amino-4,4-diphenylheptan-3-ol] | 9% | 13% | 4.6 ± 0.062 | 5.1 ± 0.062 | 6% | 9% | 4.6 ± 0.077 | -3% | 26% | 29% | 65% | 4% | 19% | 14% | 12% | 3% | -1% | 4.9 ± 0.093 | 1% | -1% | % inhibition of binding, SERT [4]: displaced; inhibition at 1 µM [6]: 0%; inhibition at 10 µM [6]: 5%; inhibition at 0.3 µM (Sigma σ1): 17%; inhibition at 3 µM (Sigma σ1): 61%; inhibition at 1 µM (Serotonin 5-HT5A): -1%; inhibition at 10 µM (Serotonin 5-HT5A): 16%; % inhibition of binding, NMDA ([7]; 1 μM): 12%
CC[C@@H](O)C(C[C@H](C)NC)(c1ccccc1)c1ccccc1 [(3R,6S)-NML, (3R,6S)-6-(methylamino)-4,4-diphenylheptan-3-ol] | 11% | 46% | 4.5 ± 0.053 | 4.6 ± 0.046 | 0% | 4% | 4.4 ± 0.037 | 1% | 29% | 12% | 45% | 6% | 43% | 14% | 28% | -4% | 5% | 4.7 ± 0.057 | 5% | 11% | inhibition at 1 µM [6]: 10%; inhibition at 10 µM [6]: 14%; inhibition at 0.3 µM (Sigma σ1): 47%; inhibition at 3 µM (Sigma σ1): 80%; inhibition at 1 µM (Serotonin 5-HT5A): -1%; inhibition at 10 µM (Serotonin 5-HT5A): 15%; % inhibition of binding, NMDA ([7]; 1 μM): 8%; % inhibition of binding, NMDA ([7]; 10 μM): 48%
CC[C@H](O)C(C[C@@H](C)N)(c1ccccc1)c1ccccc1 [(3S,6R)-DNML, (3S,6R)-6-amino-4,4-diphenylheptan-3-ol] | 12% | 39% | 4.4 ± 0.042 | 4.6 ± 0.038 | 9% | 10% | 4.5 ± 0.031 | 9% | 23% | 15% | 36% | 15% | 28% | 8% | 5% | 9% | 27% | 4.7 ± 0.061 | -11% | -1% | inhibition at 1 µM [6]: 0%; inhibition at 10 µM [6]: 22%; inhibition at 0.3 µM (Sigma σ1): -4%; inhibition at 3 µM (Sigma σ1): 18%; inhibition at 1 µM (Serotonin 5-HT5A): -1%; inhibition at 10 µM (Serotonin 5-HT5A): 11%; % inhibition of binding, NMDA ([7]; 1 μM): 8%; % inhibition of binding, NMDA ([7]; 10 μM): 38%
CC[C@H](O)C(C[C@@H](C)NC)(c1ccccc1)c1ccccc1 [(3S,6R)-NML, (3S,6R)-6-(methylamino)-4,4-diphenylheptan-3-ol] | 21% | 74% | 4.6 ± 0.047 | 5.0 ± 0.049 | -3% | 11% | 4.8 ± 0.050 | 2% | 26% | 10% | 61% | 7% | 27% | 11% | 7% | 15% | 68% | 5.0 ± 0.058 | -1% | -4% | pKi (mean ± SEM) [3H]diprenorphine, MOP (μ opioid receptor (MOP)): 5.55 ± 0.17; % inhibition of binding, SERT [4]: displaced; inhibition at 1 µM [6]: 4%; inhibition at 10 µM [6]: 9%; inhibition at 0.3 µM (Sigma σ1): -1%; inhibition at 3 µM (Sigma σ1): 26%; inhibition at 1 µM (Serotonin 5-HT5A): 4%; inhibition at 10 µM (Serotonin 5-HT5A): 42%; % inhibition of binding, NMDA ([7]; 1 μM): -5%; % inhibition of binding, NMDA ([7]; 10 μM): 51%; pKi (mean ± SEM) [3H]TCP, NMDA ([7]; Wistar rat cerebral cortex, 4.0 nM [3H]TCP): 5.54 ± 0.09
